We go through seven compounds from PMC6838683, “Discovery of Human Signaling Systems: Pairing Peptides to G Protein-Coupled Receptors” (Cell, 2019).

Holding throughout (format): cell-based
The target of test [1] is T1, GPR55 (Homo sapiens, UniProt Q9Y2T6). As to the kind of experiment: Dynamic mass redistribution (DMR), concentration-response. Set-up: hIL-2Ra signal peptide (N); expressed in transfected cells. Conditions: mean. The protocol:
(§1) 48 hr prior to parallel assaying, SNAP-tagged oGPCR cells were plated (10,000 cells/well) in fibronectin-coated 384-well Epic biosensor microplates (Corning) and poly-D-lysine coated white 384-well plates (for internalization assays). SNAP- GLP-1 receptor was plated alongside orphan receptor cells as an internal assay control for internalization assays. Receptor-expression was induced with 0.1 μg/ml doxycycline.
DMR assays provide a single integrated readout of ligand-dependent cellular response, utilizing an optical biosensor in specialized microplates to detect wavelength shifts of reflected light as it passes through the biosensor and the lower portion of the cell (∼150-200 nm). As a signal pathway agnostic approach, DMR assays are well-suited to the study of GPCRs ([Fang et al., 2008], [Schröder et al., 2011]). The mass redistribution response (Δ picometer (pm)) likely reflects a number of intracellular events, including cytoskeletal rearrangement, protein trafficking and receptor internalization. Orphan receptor-expressing cells were gently washed twice with assay buffer (HBSS with 1 mM CaCl2, 1 mM MgCl2, 20 mM HEPES, 0.01% pluronic F-68, pH 7.4) containing 0.1% DMSO and cells were equilibrated for 90 min at 22°C in the EPIC Benchtop (BT) System (Corning) to establish a stable DMR signal. After 3-5 min baseline recordings, peptides (10 μM) were added in duplicate wells using an electronic 384-channel Viaflo pipette (Integra Biosciences, Switzerland) and DMR responses were measured for 60 min at 22°C. 100 nM norepinephrine was included as an internal assay control to assess the cellular DMR response via endogenously-expressed adrenoceptors in the TREx 293 cells. Real-time data were processed using the BT to column converter MS-Excel macro (Corning) and analyzed in GraphPad Prism 7.0. DMR recordings in peptide screening experiments were buffer and solvent corrected and the area under the curve (AUC) was quantified. For subsequent validation experiments, peptides were diluted in assay buffer containing 0.1% DMSO and DMR assays were performed as above. […] Data represent mean ± standard error of the mean (SEM) from at least 3 biologically independent experiments.

For test [2], the target named is T1, GPR55. Nature of the test: Real-time receptor internalization (TR-FRET), concentration-response. Details: hIL-2Ra signal peptide (N); expressed in transfected cells. The protocol:
as §1
A TR-FRET real-time internalization assay was used to examine peptide-dependent changes in orphan receptor localization as described previously ([Foster and Bräuner-Osborne, 2018]). Surface-expressed SNAP-tagged receptors were labeled with a cell-impermeable luminescent terbium cryptate (100 nM SNAP Lumi4-Tb; Cisbio, France) for 1 hr at 37°C. Cells were washed to remove excess terbium and incubated with fluorescein-O-acetic acid (100 μM; Sigma Aldrich) for 5 min at 37°C. Peptides were added as for DMR assays, and internalization responses were recorded for 60 min at 37°C using an EnVision 2104 Multimode plate reader (PerkinElmer). 100 nM GLP-1 was used as a positive control for SNAP-GLP1R internalization. Real-time internalization responses were calculated based on TR-FRET (excitation 340 nm; emission 520 nm and 615 nm), and were expressed as the ratio between donor (terbium) and acceptor (fluorescein) emission. For peptide screening analysis (both DMR and internalization assays), we calculated the area under the curve from the real-time traces. […] Validation experiments for receptor internalization were performed as above. Internalization data was processed in MS-Excel and area under the curve was used to generate concentration-response curves using GraphPad Prism 7.0. Data represent mean ± standard error of the mean (SEM) from at least 3 biologically independent experiments.
In general terms: Time-resolved FRET reads energy transfer from a long-lived donor to a nearby acceptor.

Test [3] has as its target T2, BB3 (Homo sapiens, UniProt P32247).
T2 construct: hIL-2Ra signal peptide (N); expressed in transfected cells
T2 sequence (P32247 2-399 limits assumed): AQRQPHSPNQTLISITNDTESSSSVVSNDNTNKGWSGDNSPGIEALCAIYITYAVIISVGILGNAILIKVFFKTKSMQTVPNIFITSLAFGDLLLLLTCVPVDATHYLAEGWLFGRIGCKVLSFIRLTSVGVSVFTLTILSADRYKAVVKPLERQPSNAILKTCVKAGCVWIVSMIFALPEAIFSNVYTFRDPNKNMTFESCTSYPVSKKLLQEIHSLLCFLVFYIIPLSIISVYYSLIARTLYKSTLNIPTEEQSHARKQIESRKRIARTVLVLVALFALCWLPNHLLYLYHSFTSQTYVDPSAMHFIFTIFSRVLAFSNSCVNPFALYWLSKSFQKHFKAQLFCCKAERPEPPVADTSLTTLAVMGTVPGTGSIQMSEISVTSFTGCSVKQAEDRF
As to the kind of experiment: Dynamic mass redistribution (DMR), concentration-response. Conditions: receptor BB3; mean, SEM and n (3); read-out: DMR assays pEC50 (converted).

Test [4] has as its target T2, BB3. As to the kind of experiment: Real-time receptor internalization (TR-FRET), concentration-response. The conditions noted are these: receptor BB3; mean, SEM and n (3); read-out: Internalization assays pEC50 (converted).
The target of test [5] is T2, BB3. Nature of the test: IP1 accumulation (Gq/11), HTRF. The conditions noted are these: receptor BB3; mean, SEM and n (2-4); read-out: IP1 accumulation assays pEC50 (converted).
The target in test [6] is T3, GPR1 (Homo sapiens, UniProt P46091).
T3 sequence (P46091 1-355): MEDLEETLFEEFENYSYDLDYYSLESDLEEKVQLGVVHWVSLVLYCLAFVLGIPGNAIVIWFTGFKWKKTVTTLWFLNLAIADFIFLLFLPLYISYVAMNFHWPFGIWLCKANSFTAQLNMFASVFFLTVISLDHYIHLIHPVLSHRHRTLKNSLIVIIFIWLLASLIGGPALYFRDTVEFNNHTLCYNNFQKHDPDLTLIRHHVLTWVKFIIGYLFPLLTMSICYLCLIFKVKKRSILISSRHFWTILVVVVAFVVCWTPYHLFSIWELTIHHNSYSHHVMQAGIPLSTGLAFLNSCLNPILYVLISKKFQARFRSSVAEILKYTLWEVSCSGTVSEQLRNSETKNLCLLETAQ
As to the kind of experiment: β-arrestin recruitment (PathHunter). Conditions: receptor GPR1; mean, SEM and n (2-3); read-out: b-arrestin recruitment assays (PathHunter) pEC50 (converted). As to the method:
PathHunter eXpress Assays (DiscoverX) were performed in 384-well format according to the manufacturer’s recommendations. GPR1 cells were incubated with peptides for 90 min and luminescence measured using an EnSpire 2300 Multimode plate reader (PerkinElmer).
(In general: Activated receptors often draw arrestin, which recruitment assays turn into a signal.)

Where [7] appears, read: receptor GPR55, SEM and n (2-4), read-out: DMR assays pEC50 (converted).
Setting [8] is: receptor GPR55, mean, SEM and n (3-4), read-out: Internalization assays pEC50 (converted).
Setting [9] is: GPR55, SEM and n, read-out: pEC50, DMR (AUC) (converted).
The mark [10] stands for this setting: GPR55, mean, SEM and n, read-out: pEC50, Internalization (AUC) (converted).

Residues, ends and D or L forms follow the SMILES beside them.

T1 sequence (Q9Y2T6 2-319 limits assumed): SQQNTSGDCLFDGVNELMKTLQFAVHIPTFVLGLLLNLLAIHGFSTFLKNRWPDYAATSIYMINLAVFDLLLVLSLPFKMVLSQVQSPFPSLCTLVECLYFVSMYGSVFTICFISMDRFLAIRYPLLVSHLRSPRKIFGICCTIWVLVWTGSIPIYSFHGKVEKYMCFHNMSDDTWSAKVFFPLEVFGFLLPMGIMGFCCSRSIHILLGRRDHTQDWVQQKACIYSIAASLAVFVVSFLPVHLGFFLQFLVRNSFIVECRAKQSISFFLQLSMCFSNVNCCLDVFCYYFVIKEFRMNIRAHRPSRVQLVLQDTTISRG

Take `CC[C@H](C)[C@H](NC(=O)[C@H](CC(=O)O)NC(=O)[C@@H](NC(=O)[C@H](Cc1ccc(O)cc1)NC(=O)[C@@H](NC(=O)CNC(=O)[C@H](CC(N)=O)NC(=O)[C@@H](NC(=O)[C@H](CC(C)C)NC(=O)[C@H](Cc1ccc(O)cc1)NC(=O)[C@H](CC(=O)O)NC(=O)[C@H](CC(C)C)NC(=O)[C@H](CCCNC(=N)N)NC(=O)[C@H](CO)NC(=O)[C@H](Cc1ccc(O)cc1)NC(=O)[C@H](CCCNC(=N)N)NC(=O)[C@@H](N)CCCCN)[C@@H](C)CC)[C@@H](C)CC)C(C)C)C(=O)O` [114 resynthesized] (H-KRYSRLDYLINGIYVDI-OH): the EC50 in test [1] (setting [7]) was 3.89 µM; in test [2] (setting [8]), 15.8 µM.

For the compound `CC(C)C[C@H](NC(=O)[C@H](C)NC(=O)CNC(=O)[C@H](CC(C)C)NC(=O)[C@H](CCCNC(=N)N)NC(=O)[C@@H](N)CCCCN)C(=O)N[C@@H](Cc1ccccc1)C(=O)N[C@@H](CC(N)=O)C(=O)N1CCC[C@H]1C(=O)N[C@@H](Cc1ccc(O)cc1)C(=O)N[C@@H](Cc1ccccc1)C(=O)N[C@@H](CC(=O)O)C(=O)N1CCC[C@H]1C(=O)N[C@@H](CC(C)C)C(=O)N[C@@H](CCC(N)=O)C(=O)N[C@@H](Cc1c[nH]c2ccccc12)C(=O)N[C@@H](CCCCN)C(=O)N[C@@H](CC(N)=O)C(=O)N[C@@H](CO)C(=O)N[C@@H](CC(=O)O)C(=O)N[C@@H](Cc1ccccc1)C(=O)N[C@@H](CCC(=O)O)C(=O)O` [143 resynthesized] (H-KRLGALFNPYFDPLQWKNSDFE-OH), the EC50 in test [1] (setting [7]) was 3.16 µM; in test [2] (setting [8]) it was 6.31 µM.

`CC[C@H](C)[C@H](NC(=O)CNC(=O)[C@H](CC(=O)O)NC(=O)[C@H](CO)NC(=O)[C@@H](N)Cc1cnc[nH]1)C(=O)N[C@@H](Cc1ccccc1)C(=O)N[C@H](C(=O)N[C@@H](CC(=O)O)C(=O)N[C@@H](CO)C(=O)N[C@@H](Cc1ccc(O)cc1)C(=O)N[C@@H](CO)C(=O)N[C@@H](CCCNC(=N)N)C(=O)N[C@@H](Cc1ccc(O)cc1)C(=O)N[C@@H](CCCNC(=N)N)C(=O)N[C@@H](CCCCN)C(=O)N[C@@H](CCC(N)=O)C(=O)N[C@@H](CCSC)C(=O)N[C@@H](C)C(=O)N[C@H](C(=O)N[C@@H](CCCCN)C(=O)N[C@@H](CCCCN)C(=O)N[C@@H](Cc1ccc(O)cc1)C(=O)N[C@@H](CC(C)C)C(=O)N[C@@H](C)C(=O)N[C@@H](C)C(=O)N[C@H](C(=O)N[C@@H](CC(C)C)C(=O)NCC(=O)N[C@@H](CCCCN)C(=O)N[C@@H](CCCNC(=N)N)C(=O)N[C@@H](Cc1ccc(O)cc1)C(=O)N[C@@H](CCCCN)C(=O)N[C@@H](CCC(N)=O)C(=O)N[C@@H](CCCNC(=N)N)C(=O)N[C@H](C(=O)N[C@@H](CCCCN)C(=O)N[C@@H](CC(N)=O)C(=O)N[C@@H](CCCCN)C(N)=O)C(C)C)C(C)C)C(C)C)[C@@H](C)O` [168.1 (Phoenix)]: the EC50 was 0.148 µM in test [1] (setting [7]) and 0.000123 µM in test [2] (Internalization assays pEC50).

In the case of `CC(C)C[C@H](NC(=O)[C@H](C)NC(=O)CNC(=O)[C@H](CC(C)C)NC(=O)[C@H](CCCNC(=N)N)NC(=O)[C@@H](N)CCCCN)C(=O)N[C@@H](Cc1ccccc1)C(=O)N[C@@H](CC(N)=O)C(=O)N1CCC[C@H]1C(=O)N[C@@H](Cc1ccc(O)cc1)C(=O)N[C@@H](Cc1ccccc1)C(=O)N[C@@H](CC(=O)O)C(=O)N1CCC[C@H]1C(=O)N[C@@H](CC(C)C)C(=O)N[C@@H](CCC(N)=O)C(=O)N[C@@H](Cc1c[nH]c2ccccc12)C(=O)N[C@@H](CCCCN)C(=O)N[C@@H](CC(N)=O)C(=O)N[C@@H](CO)C(=O)N[C@@H](CC(=O)O)C(=O)N[C@@H](Cc1ccccc1)C(=O)N[C@@H](CCC(=O)O)C(=O)O` [Chgb (511-532)] (H-KRLGALFNPYFDPLQWKNSDFE-OH), the EC50 in test [1] (setting [9]) was 2.4 µM; in test [2] (setting [10]), 4.68 µM.

With `CC[C@H](C)[C@H](NC(=O)[C@H](CC(=O)O)NC(=O)[C@@H](NC(=O)[C@H](Cc1ccc(O)cc1)NC(=O)[C@@H](NC(=O)CNC(=O)[C@H](CC(N)=O)NC(=O)[C@@H](NC(=O)[C@H](CC(C)C)NC(=O)[C@H](Cc1ccc(O)cc1)NC(=O)[C@H](CC(=O)O)NC(=O)[C@H](CC(C)C)NC(=O)[C@H](CCCNC(=N)N)NC(=O)[C@H](CO)NC(=O)[C@H](Cc1ccc(O)cc1)NC(=O)[C@H](CCCNC(=N)N)NC(=O)[C@@H](N)CCCCN)[C@@H](C)CC)[C@@H](C)CC)C(C)C)C(=O)O` [MANSC (415-431)] (H-KRYSRLDYLINGIYVDI-OH), the EC50 in test [1] (setting [9]) is 3.09 µM; in test [2] (setting [10]), 13.5 µM.

Regarding `CC(C)C[C@H](NC(=O)[C@H](CCCNC(=N)N)NC(=O)[C@@H](N)CCCCN)C(=O)NCC(=O)N[C@@H](CCC(=O)O)C(=O)N[C@@H](CC(C)C)C(=O)N[C@@H](Cc1ccccc1)C(=O)N[C@@H](CC(N)=O)C(=O)N1CCC[C@H]1C(=O)N[C@@H](Cc1ccc(O)cc1)C(=O)N[C@@H](Cc1ccc(O)cc1)C(=O)N[C@@H](CC(=O)O)C(=O)N1CCC[C@H]1C(=O)N[C@@H](CC(C)C)C(=O)N[C@@H](CCC(N)=O)C(=O)N[C@@H](Cc1c[nH]c2ccccc12)C(=O)N[C@@H](CCCCN)C(=O)N[C@@H](CO)C(=O)N[C@@H](CO)C(=O)N[C@@H](Cc1c[nH]cn1)C(=O)N[C@@H](Cc1ccccc1)C(=O)N[C@@H](CCC(=O)O)C(=O)O` [Peptide 143.1] (H-KRLGELFNPYYDPLQWKSSHFE-OH), the EC50 in test [1] (setting [7]) is 25.1 µM.

For `CSCC[C@H](NC(=O)[C@H](CC(C)C)NC(=O)[C@H](Cc1cnc[nH]1)NC(=O)CNC(=O)[C@@H](NC(=O)[C@H](C)NC(=O)[C@H](Cc1c[nH]c2ccccc12)NC(=O)[C@H](Cc1cnc[nH]1)NC(=O)[C@H](CC(N)=O)NC(=O)CN)C(C)C)C(N)=O` [Peptide 167.1], the EC50 in test [3] was 0.49 µM; in test [4] it was 14.5 µM; in test [5], 2.51 µM; in test [6] it was 22.9 µM.
